Data taken from US20250188110A1, “SPECIFIC SMALL MOLECULE INHIBITORS THAT BLOCK KMT9 METHYLTRANSFERASE ACTIVITY AND FUNCTION” (ALBERT-LUDWIGS-UNIVERSITÄT FREIBURG, priority 2021, published 2025).
Like-named read-outs stand apart in the source and are kept apart here.

How the values were obtained:
KMT9 [1] = biological target: T1, KMT9 (Homo sapiens, UniProt Q9Y5N5); assay: KMT9 thermal shift assay (SyproOrange); assay type: binding
T1 sequence (Q9Y5N5 1-214): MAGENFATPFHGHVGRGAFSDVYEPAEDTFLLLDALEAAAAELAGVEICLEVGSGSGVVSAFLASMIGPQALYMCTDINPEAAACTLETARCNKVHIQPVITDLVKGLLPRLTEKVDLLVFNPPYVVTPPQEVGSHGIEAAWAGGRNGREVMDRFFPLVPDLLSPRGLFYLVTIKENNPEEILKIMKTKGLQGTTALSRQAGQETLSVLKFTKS
T1 sequence (Q9UI30 1-120 isoform Q9UI30-2 partner): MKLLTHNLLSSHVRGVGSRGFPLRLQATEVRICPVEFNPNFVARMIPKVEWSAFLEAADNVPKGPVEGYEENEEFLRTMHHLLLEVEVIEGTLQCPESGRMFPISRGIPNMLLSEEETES
How it was run: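 Recombinant KMT9 was incubated with compound and SyproOrange at 25° C in 50 mM BTP pH 8.5, 1 mM MgCl2, 1 mM DTT. It was then heated from 20° C to 95° C at 1° C per 15 s with fluorescence read each step. Tm came from a Boltzmann sigmoidal fit; ΔTm relative to DMSO control, binned in 5 K ranges.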

KMT9 [2] = biological target: T1, KMT9; assay: KMT9 methyltransferase inhibition assay, MTaseGlo luminescence (from entry 155); assay type: biochemical; conditions: 100 nM KMT9, 5 μM ETF1, 1 μM SAM
Protocol: For the compounds from entry 155 on in Table 1, the following procedure was used to determine IC50 values: The assay was carried out in white, opaque 384-well OptiPlates (PerkinElmer). For IC50 determination, a 2.5x substrate mix (final assay concentrations: 5 μM ETF1, 1 μM SAM and 1x MTaseGlo Reagent), a 2.5x KMT9 solution (final assay concentration 100 nM) and a 5x inhibitor stock 1:1 dilution series (concentration according to the desired range; dilution series was prepared in assay buffer containing 10% DMSO to obtain a final DMSO concentration of 2% in the assay) were prepared. 2 μL of 5x inhibitor stock and 4 μL of 2.5x KMT9 were pipetted, the plate was spun down at 700 rpm for 1 min using a Hettich UNIVERSAL 320 centrifuge and incubated at room temperature (around 25° C.) for 15 min. The reaction was initiated by adding 4 μL of 2.5x substrate mix, the plate was spun down as described before and incubated at 30° C. for 2 h. Afterwards, 10 μL of 2× MTaseGlo Detection solution was added, the plate was centrifuged as described above and incubated for 60 min at room temperature. Luminescence was measured using a PerkinElmer EnVision 2102 Multilabel Reader. Calculation of inhibition and data fitting was carried out as for entries 1-154. described above.
For the results of the methyltransferase inhibition assay shown as “Inhibition” in Table 1, “I” represents an IC50 less than 0.1 μM, “II” represents an IC50 equal or higher than 0.1 μM and less than 1 μM, “III” represents an IC50 equal or higher than 1 µM and less than 10 µM and “IV” represents an IC50 equal or higher than 10 µM

KMT9 [3] = biological target: T1, KMT9; assay: Microscale thermophoresis (MST) KMT9 binding
How it was run: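 His-tagged KMT9 (20 nM), RED-Tris-NTA labelled, titrated with varying compound concentrations in 25 mM HEPES pH 7.5, 100 mM NaCl, 1 mM DTT, 0.05% Tween. MST at 40% MST and 100% LED power, Nano-RED excitation; Kd binned A ≤10 nM, B 10–100, C 100–1000, D >1000 nM.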

[4] = ΔTm, 500 µM compound, 2 μM KMT9, 5X SO, read-out: Thermal shift
[5] = from entry 155: MTaseGlo assay, read-out: Inhibition
[6] = microscale thermophoresis, His-tag labelled KMT9 (20 nM), read-out: MST
[7] = ΔTm class, 500 uM compound, 2 μM KMT9, read-out: Thermal shift
[8] = IC50 class, MTaseGlo procedure (entries from 155 on), read-out: Inhibition
[9] = His-tag labelled KMT9 20 nM, Kd class, read-out: MST
[10] = 500 µM compound, 2 μM KMT9, read-out: Thermal shift (ΔTm)
[11] = MTaseGlo procedure (entries from 155), read-out: Inhibition (IC50)
[12] = His-tag labelled KMT9 20 nM, read-out: MST (Kd)

Row | SMILES | ΔTm at 500 µM (KMT9 [1]; [7]) | IC50 (KMT9 [2]; [8]) | Kd (KMT9 [3]; [9]) | ΔTm at 500 µM (KMT9 [1]; [10]) | IC50 (KMT9 [2]; [11]) | Kd (KMT9 [3]; [12]) | other results
1 | Nc1ncnc2c1c(-c1nccs1)cn2[C@@H]1C[C@H](c2cc(Cl)cc(Cl)c2)[C@@H](O)[C@H]1O [Compound 394, (1R,2S,3R,5R)-3-(4-amino-5-(thiazol-2-yl)-7H-pyrrolo[2,3-d]pyrimidin-7-yl)-5-(3,5-dichlorophenyl) cyclo-pentane-1,2-diol] | – | – | – | – | – | – | ΔTm at 500 µM (KMT9 [1]; [4]): ≤ 10 °C; IC50 (KMT9 [2]; [5]): > 10 µM; Kd (KMT9 [3]; [6]): > 1000 nM
2 | Nc1ncnc2c1c(-c1nccs1)cn2[C@@H]1C[C@H](c2ccccc2)[C@@H](O)[C@H]1O [Compound 395, (1R,2S,3R,5R)-3-(4-amino-5-(thiazol-2-yl)-7H-pyrrolo[2,3-d]pyrimidin-7-yl)-5-phenylcyclopentane-1,2-diol] | – | – | – | – | – | – | ΔTm at 500 µM (KMT9 [1]; [4]): ≤ 10 °C; IC50 (KMT9 [2]; [5]): > 10 µM; Kd (KMT9 [3]; [6]): > 1000 nM
3 | CCc1cn([C@@H]2C[C@H](c3ccccc3)[C@@H](O)[C@H]2O)c2ncnc(N)c12 [Compound 396, (1R,2S,3R,5R)-3-(4-amino-5-ethyl-7H-pyrrolo[2,3-d]pyrimidin-7-yl)-5-phenylcyclopentane-1,2-diol] | ≤ 10 °C | > 10 µM | > 1000 nM | – | – | – | –
4 | Nc1ncnc2c1ccn2[C@@H]1C[C@H]([C@H]2CCCN2)[C@@H](O)[C@H]1O [Compound 398, (1R,2S,3R,5R)-3-(4-amino-7H-pyrrolo[2,3-d]pyrimidin-7-yl)-5-((R)-pyrrolidin-2-yl) cyclopentane-1,2-diol] | – | – | – | ≤ 10 °C | > 10 µM | > 1000 nM | –
5 | Nc1ncnc2c1ccn2[C@@H]1C[C@H]([C@@H]2CCCN2)[C@@H](O)[C@H]1O [Compound 399, (1R,2S,3R,5R)-3-(4-amino-7H-pyrrolo[2,3-a]pyrimidin-7-yl)-5-((S)-pyrrolidin-2-yl) cyclopentane-1,2-diol] | – | – | – | ≤ 10 °C | > 10 µM | > 1000 nM | –
6 | Nc1ncnc2c1ccn2[C@@H]1C[C@H](c2cccc(O)c2)[C@@H](O)[C@H]1O [Compound 404, (1R,2S,3R,5R)-3-(4-amino-7H-pyrrolo[2,3-d]pyrimidin-7-yl)-5-(3-hydroxyphenyl) cyclopentane-1,2-diol] | ≤ 10 °C | > 10 µM | > 1000 nM | – | – | – | –
7 | Nc1ncnc2c1ccn2[C@@H]1C[C@H](c2ccc(O)cc2)[C@@H](O)[C@H]1O [Compound 405, (1R,2S,3R,5R)-3-(4-amino-7H-pyrrolo[2,3-d]pyrimidin-7-yl)-5-(4-hydroxyphenyl) cyclopentane-1,2-diol] | 10 to 15 °C | > 10 µM | > 1000 nM | – | – | – | –
8 | CNc1ncnc2c1ccn2[C@@H]1C[C@H](c2ccc(O)cc2)[C@@H](O)[C@H]1O [Compound 406, (1S,2R,3R,5R)-3-(4-hydroxyphenyl)-5-(4-(methylamino)-7H-pyrrolo[2,3-a]pyrimidin-7-yl) cyclopentane-1,2-diol] | – | – | – | ≤ 10 °C | > 10 µM | > 1000 nM | –
9 | Nc1ncnc2c1ccn2[C@@H]1C[C@H](c2cccc(Cl)c2)[C@@H](O)[C@H]1O [Compound 407, (1R,2S,3R,5R)-3-(4-amino-7H-pyrrolo[2,3-d]pyrimidin-7-yl)-5-(3-chlorophenyl) cyclopentane-1,2-diol] | – | – | – | ≤ 10 °C | > 10 µM | > 1000 nM | –
10 | CC(=O)c1cccc([C@H]2C[C@@H](n3ccc4c(N)ncnc43)[C@H](O)[C@@H]2O)c1 [Compound 408, 1-(3-((1R,2R,3S,4R)-4-(4-amino-7H-pyrrolo[2,3-d]pyrimidin-7-yl)-2,3-dihydroxycyclopentyl)phenyl)ethan-1-one] | – | – | – | ≤ 10 °C | > 10 µM | > 1000 nM | –
11 | Nc1ccc([C@H]2C[C@@H](n3ccc4c(N)ncnc43)[C@H](O)[C@@H]2O)cc1 [Compound 409, (1r,2s,3r,5r)-3-(4-amino-7H-pyrrolo[2,3-d]pyrimidin-7-yl)-5-(4-aminophenyl) cyclopentane-1,2-diol] | ≤ 10 °C | > 10 µM | > 1000 nM | – | – | – | –
12 | Nc1cccc([C@H]2C[C@@H](n3ccc4c(N)ncnc43)[C@H](O)[C@@H]2O)c1 [Compound 410, (1R,2S,3R,5R)-3-(4-amino-7H-pyrrolo[2,3-d]pyrimidin-7-yl)-5-(3-aminophenyl) cyclopentane-1,2-diol] | – | – | – | ≤ 10 °C | > 10 µM | > 1000 nM | –
13 | CN1CCC([C@H]2C[C@@H](n3cc(-c4ccn(Cc5ccccc5)n4)c4cnc(Cl)nc43)[C@H](O)[C@@H]2O)CC1 [Compound 491, (1R,2S,3R,5R)-3-(5-(1-benzyl-1H-pyrazol-3-yl)-2-chloro-7H-pyrrolo[2,3-d]pyrimidin-7-yl)-5-(1-methylpiperidin-4-yl)cyclopentane-1,2-diol] | 15 to 20 °C | 0.1 to 1 µM | 100 to 1000 nM | – | – | – | –
14 | CN1CCC([C@H]2C[C@@H](n3cc(-c4ccn(S(=O)(=O)c5ccccc5)n4)c4c(N)nc(Cl)nc43)[C@H](O)[C@@H]2O)CC1 [Compound 492, (1R,2S,3R,5R)-3-(4-Amino-2-chloro-5-(1-(phenylsulfonyl)-1H-pyrazol-3-yl)-7H-pyrrolo[2,3-d]pyrimidin-7-yl)-5-(1-methylpiperidin-4-yl)cyclopentane-1,2-diol] | > 20 °C | 0.1 to 1 µM | ≤ 10 nM | – | – | – | –
15 | CN1CC=C([C@H]2C[C@@H](n3cc(-c4nccs4)c4c(N)nc(Cl)nc43)[C@H](O)[C@@H]2O)CC1 [Compound 493, (1R,2S,3R,5R)-3-(4-Amino-2-chloro-5-(thiazol-2-yl)-7H-pyrrolo[2,3-d]pyrimidin-7-yl)-5-(1-methyl-1,2,3,6-tetrahydropyridin-4-yl)cyclopentane-1,2-diol] | – | – | – | 15 to 20 °C | 0.1 to 1 µM | ≤ 10 nM | –
16 | CN1CCC([C@H]2C[C@@H](n3cc(-c4ccn(S(=O)(=O)c5ccccc5)n4)c4cnc(Cl)nc43)[C@H](O)[C@@H]2O)CC1 [Compound 495, (1R,2S,3R,5R)-3-(2-Chloro-5-(1-(phenylsulfonyl)-1H-pyrazol-3-yl)-7H-pyrrolo[2,3-d]pyrimidin-7-yl)-5-(1-methylpiperidin-4-yl)cyclopentane-1,2-diol] | 15 to 20 °C | 1 to 10 µM | 10 to 100 nM | – | – | – | –
17 | CN1CCC([C@H]2C[C@@H](n3cc(-c4nc(Cc5ccccc5)cs4)c4cnc(Cl)nc43)[C@H](O)[C@@H]2O)CC1 [Compound 496, (1R,2S,3R,5R)-3-(5-(4-benzylthiazol-2-yl)-2-chloro-7H-pyrrolo[2,3-d]pyrimidin-7-yl)-5-(1-methylpiperidin-4-yl)cyclopentane-1,2-diol] | 15 to 20 °C | 1 to 10 µM | 10 to 100 nM | – | – | – | –
18 | O[C@@H]1[C@H](O)[C@@H](C2CCN(CC3CC3)CC2)C[C@H]1n1cc(-c2nc(Cc3ccccc3)cs2)c2cnc(Cl)nc21 [Compound 497, (1R,2S,3R,5R)-3-(5-(4-Benzylthiazol-2-yl)-2-chloro-7H-pyrrolo[2,3-d]pyrimidin-7-yl)-5-(1-(cyclopropylmethyl)piperidin-4-yl)cyclopentane-1,2-diol] | 10 to 15 °C | 1 to 10 µM | 10 to 100 nM | – | – | – | –
19 | O[C@@H]1[C@H](O)[C@@H](C2CCN(CCc3ccccc3)CC2)C[C@H]1n1cc(-c2nc(Cc3ccccc3)cs2)c2cnc(Cl)nc21 [Compound 498, (1R,2S,3R,5R)-3-(5-(4-Benzylthiazol-2-yl)-2-chloro-7H-pyrrolo[2,3-d]pyrimidin-7-yl)-5-(1-phenethylpiperidin-4-yl)cyclopentane-1,2-diol] | 10 to 15 °C | 1 to 10 µM | 10 to 100 nM | – | – | – | –
